According to US5643784A, “Indan derivatives” (H, Lundbeck A/S, priority 1990, dated 1997):

Columns and labels:
5-HT2 receptors = biological target: T1, 5-HT2 receptors (Rattus norvegicus, UniProt P14842); assay: Inhibition of 3H-ketanserin binding to 5-HT2 receptors in rat cortex in vitro; settings: 3H-Ketanserin 0.5 nM, rat cortex, 37° C., 30 min; read-out: Receptor Binding; IC50 5-HT2 3H-Ket
T1 construct: cortical tissue is dissected and weighed; from tissue; host or cells: cortex of male Wistar rats, crude membranes
T1 sequence (P14842 whole entry): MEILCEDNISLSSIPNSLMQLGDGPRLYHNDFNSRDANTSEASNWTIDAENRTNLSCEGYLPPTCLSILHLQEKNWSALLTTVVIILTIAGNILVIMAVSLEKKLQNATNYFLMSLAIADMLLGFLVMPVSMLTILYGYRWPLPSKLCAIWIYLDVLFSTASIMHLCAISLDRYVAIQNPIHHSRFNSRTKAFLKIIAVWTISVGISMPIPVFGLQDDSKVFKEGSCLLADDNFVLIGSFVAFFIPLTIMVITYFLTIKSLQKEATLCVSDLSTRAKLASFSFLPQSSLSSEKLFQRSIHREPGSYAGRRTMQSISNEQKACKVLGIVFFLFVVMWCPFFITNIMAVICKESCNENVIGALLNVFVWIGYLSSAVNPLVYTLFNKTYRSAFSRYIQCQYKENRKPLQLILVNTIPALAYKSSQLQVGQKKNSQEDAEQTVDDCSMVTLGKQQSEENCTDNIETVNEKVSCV
Method: Method in Hyttel, Pharmacology & Toxicology, 61, 126-129, 1987.
Male Wistar (Mol:Wist) rats (125-250 g) are sacrificed and cortical tissue is dissected and weighed. The tissue is homogenized (Ultra Turrax, 10 sec.) in 10 ml of ice-cold 50 mM tris buffer pH 7.7 (at 25° C.). The centrifuge glassware used in this step has been rinsed by sonication for 10 min. in ethanol. The homogenate is centrifuged twice at 20,000 g for 10 min. at 4° C. with rehomogenization of the pellet in 10 ml ice-cold buffer. The final pellet is homogenized in 500 vol (w/v) ice-cold buffer.
Incubation tubes kept on ice in triplicate receive 100 μl of drug solution in water (or water for total binding) and 2000 μl of tissue suspension (final tissue content corresponds to 4 mg original tissue). […] After incubation for 30 min. the samples are filtered under vacuum (0-50 mBar) through Whatman GF/F filters (25 mm). The tubes are rinsed with 5 ml ice-cold buffer which are then poured on the filters. Thereafter, the filters are washed with 2×5 ml of buffer. The filters are placed in counting vials and 4 ml of appropriate scintillation fluid (e.g. Picofluor™15) are added. After shaking for 1 h and storage 2 hrs in the dark the content of radioactivity is determined by liquid scintillation counting. Specific binding is obtained by subtracting the nonspecific binding in the presence of 1 μM mianserin.
(§1) For determination of the inhibition of binding five concentrations of drugs covering 3 decades are used.
The IC50 value is determined as the concentration at which the binding is 50% of the total binding in control samples minus the nonspecific binding in the presence of 1 μM mianserin.

α1 adrenoceptors = assay: Inhibition of 3H-prazosin binding to α1 adrenoceptors in rat brain in vitro; settings: 3H-Prazosin 0.25 nM, rat brain, 25° C., 20 min; read-out: Receptor Binding; IC50 α1 3H-Praz
Method: INHIBITION OF ^3 H-PRAZOSIN BINDING TO α1 ADRENOCEPTORS IN RAT BRAIN IN VITRO
Method and results in Hyttel & Larsen, J. Neurochem, 44, 1615-1622, 1985; Skarsfeldt & Hyttel, Eur. J. Pharmacol. 125, 323-340, 1986.
Male Wistar (Mol:Wist) rats (125-200 g) are sacrificed and brain tissue is dissected and weighed. The tissue is homogenized (Ultra Turrax, 10 sec.) in 10 ml of ice-cold […] Tris buffer pH 7,7 (at 25° C.). The homogenate is centrifuged twice at 20,000 g for 10 min. at 4° C. with rehomogenization of the pellet in 10 ml ice-cold buffer. The final pellet is homogenized in 400 vol (w/v) ice-cold buffer.
Incubation tubes kept on ice in triplicate receive 100 μl of drug solution in water (or water for total binding) and 4000μl of tissue suspension (final tissue content corresponds to 10 mg original tissue). The binding experiment is initiated by addition of 100 μl of ^3 H-Prazosin (final concentration 0.25 nM) and by placing the tubes in a 25° C. water bath. After incubation for 20 min. the samples are filtered under vacuum (0-50 mBar) through Whatman GF/F filters (25 mm). The tubes are rinsed with 5 ml ice-cold buffer which then are poured on the filters. Thereafter, the filters are washed with 5 ml of buffer. The filters are placed in counting vials and 4 ml of appropriate scintillation fluid (e.g. Picofluor™15) are added. After shaking for 1 h and storage 2 hrs in the dark the content of radioactivity is determined by liquid scintillation counting. Specific binding is obtained by subtracting the nonspecific binding in the presence of 1 μM of Prazosin.
as §1
The measured cpm are plotted against drug concentration on semilogarithmic paper and the best fitting S-shaped curve is drawn. The IC50 value is determined as the concentration at which the binding is 50% of the total binding in control samples minus the nonspecific binding in the presence of 1 μM of Prazosin.
^3 H-Prazosin=[furoyl-5-^3 H]-Prazosin from New England Nuclear, specific activity approximately 20 Ci/mmol.

| SMILES | IC50 (5-HT2 receptors) | IC50 (α1 adrenoceptors) |
| --- | --- | --- |
| O=C1OCCN1CCN1CCN([C@H]2C[C@H](c3ccc(F)cc3)c3cc(Cl)ccc32)CC1 (relative stereo) [Compound 14, Trans-3-[2-[4-[5-chloro-3-(4-fluorophenyl)-2,3-dihydro-1-H-inden-1-yl]piperazin-1-yl]ethyl]-2-oxazolidinone] | 23 nM | 140 nM |
| OCCN1CCN([C@H]2C[C@H](c3ccc(F)cc3)c3cc(F)ccc32)CC1 (relative stereo) [Compound 2, Trans-4-[5-fluoro-3-(4-fluorophenyl)-2,3-dihydro-1H-inden-1-yl]-1-piperazine ethanol] | 21 nM | 150 nM |
| OCCN1CCN([C@H]2C[C@H](c3ccc(F)cc3)c3cc(F)ccc32)CC1 (single isomer, unassigned) [(+)-2] | 12 nM | 72 nM |
| O=C1NCCN1CCN1CCN([C@@H]2C[C@@H](c3ccc(F)cc3)c3cc(Cl)ccc32)CC1 (relative stereo) [Compound 4, Trans-1-[2-[4-[5-chloro-3-(4-fluorophenyl)-2,3-dihydro-1H-inden-1-yl]piperazine-1-yl]ethyl]-2-imidazolidinone] | 2.9 nM | 200 nM |
| Fc1ccc([C@@H]2C[C@@H](N3CCN(CCN4CCCNC4=S)CC3)c3ccc(F)cc32)cc1 (single isomer, unassigned) [(-)-30, (-)-Trans-1-[2-[4-[5-fluoro-3-(4-fluorophenyl)-2,3-dihydro-1H-inden-1-yl]piperazin-1-yl]ethyl]-tetrahydro-2(1H)-pyrimidinethione] | 42 nM |  |
| Fc1ccc([C@@H]2C[C@@H](N3CCN(CCN4CCNC4=S)CC3)c3ccc(F)cc32)cc1 (relative stereo) [Compound 29, Trans-1-[2-[4-[5-fluoro-3-(4-fluorophenyl)-2,3-dihydro-1H-inden-1-yl]piperazin-1-yl]-ethyl]-2-imidazolidinthione] | 1.5 nM | 110 nM |
| OCCN1CCN([C@H]2C[C@H](c3ccc(F)cc3)c3cc(Cl)ccc32)CC1 (single isomer, unassigned) [(-)-3] | 11 nM | 210 nM |
| O=C1CCCN1CCN1CCN([C@H]2C[C@H](c3ccc(F)cc3)c3cc(Cl)ccc32)CC1 (relative stereo) [Compound 15, Trans-1-[2-[4-[5-chloro-3-(4-fluorophenyl)-2-3-dihydro-1-H-inden-1-yl]piperazin-1-yl]ethyl]-2-pyrrolidinone] | 10 nM | 370 nM |
| CC(C)N1CCN(CCN2CCN([C@@H]3C[C@@H](c4ccc(F)cc4)c4cc(Cl)ccc43)CC2)C1=O (single isomer, unassigned) [(-)-11, (-)-Trans-1-[2-[4-[5-chloro-3-(4-fluorophenyl)-2,3-dihydro-1H-inden-1-yl]piperazin-1-yl]-ethyl]-3-isopropyl-2-imidazolidinone] | 1.1 nM | 210 nM |
| Fc1ccc([C@@H]2C[C@@H](N3CCN(CCN4CCCNC4=S)CC3)c3ccc(F)cc32)cc1 (relative stereo) [Compound 30, Trans-1-[2-[4-[5-fluoro-3-(4-fluorophenyl)-2,3-dihydro-1H-inden-1-yl]piperazin-1-yl]ethyl]-tetrahydro-2(1H)-pyrimidinethione] | 1.7 nM | 110 nM |
| OCCN1CCN([C@H]2C[C@H](c3ccc(F)cc3)c3cc(F)ccc32)CC1 (single isomer, unassigned) [(-)-2] | 500 nM | 1100 nM |
| Cc1ccc2c(c1)[C@@H](c1ccc(F)cc1)C[C@@H]2N1CCN(CCN2CCN(C(C)C)C2=O)CC1 (relative stereo) [Compound 12, Trans-1-[2-[4-[3-(4-fluorophenyl)-5-methyl-2,3-dihydro-1-H-inden-1-yl]piperazin-1-yl]ethyl]-3-isopropyl-2-imidazolidinone] | 3 nM | 120 nM |
| O=c1[nH]c2ccccc2n1CCN1CCN([C@@H]2C[C@@H](c3ccc(F)cc3)c3cc(Cl)ccc32)CC1 (relative stereo) [Compound 25, Trans-1-[2-[4-[5-chloro-3-(4-fluorophenyl)-2,3-dihydro-1H-inden-1-yl]piperazin-1-yl]ethyl]-benzimidazolin-2-one] | 5.6 nM |  |
| CC(C)N1CCN(CCN2CCN([C@H]3C[C@H](c4ccc(F)cc4)c4cc(Cl)ccc43)CC2)C1=O (single isomer, unassigned) [(+)-11] | 75 nM | 340 nM |
| O=C1NCCCN1CCN1CCN([C@@H]2C[C@@H](c3ccc(F)cc3)c3cc(Cl)ccc32)CC1 (single isomer, unassigned) [(-)-34, (-)-Trans-1-[2-[4-[5-chloro-3-(4-fluorophenyl)-2,3-dihydro-1H-inden-1-yl]piperazin-1-yl]ethyl]-tetrahydro-2(1H)-pyrimidinone] | 1.3 nM | 62 nM |
| Fc1ccc([C@@H]2C[C@@H](N3CCN(CCN4CCCNC4=S)CC3)c3ccc(Cl)cc32)cc1 (single isomer, unassigned) [(+)-32, (+)-Trans-1-[2-[4-[5-chloro-3-(4-fluorophenyl)-2,3-dihydro-1H-inden-1-yl]piperazin-1-yl]ethyl]-tetrahydro-2(1H)-pyrimidinethione] | 21 nM | 350 nM |
| O=C1NCCN1CCCN1CCN([C@H]2C[C@H](c3ccc(F)cc3)c3cc(Cl)ccc32)CC1 (relative stereo) [Compound 16, Trans-1-[3-[4-[5-chloro-3-(4-fluorophenyl)-2,3-dihydro-1-H-inden-1-yl]piperazin-1-yl]propan-1-yl]-2-imidazolidinone] | 10 nM | 73 nM |
| Fc1ccc([C@@H]2C[C@@H](N3CCN(CCN4CCCNC4=S)CC3)c3ccc(Cl)cc32)cc1 (relative stereo) [Compound 32, Trans-1-[2-[4-[5-chloro-3-(4-fluorophenyl)-2,3-dihydro-1H-inden-1-yl]piperazin-1-yl]ethyl]-tetrahydro-2(1H)-pyrimidinethione] | 1.5 nM | 170 nM |
| O=C1NCCCN1CCN1CCN([C@@H]2C[C@@H](c3ccc(F)cc3)c3cc(Cl)ccc32)CC1 (single isomer, unassigned) [(+)-34, (+)-Trans-1-[2-[4-[5-chloro-3-(4-fluorophenyl)-2,3-dihydro-1H-inden-1-yl]piperazin-1-yl]ethyl]-tetrahydro-2(1H)-pyrimidinone] | 120 nM |  |
| OCCN1CCN([C@H]2C[C@H](c3ccc(F)cc3)c3cc(Cl)ccc32)CC1 (single isomer, unassigned) [(+)-3] | 230 nM | 2500 nM |
